Among the data in PubChem BioAssay (NCI) are TGI and GI50 values, retold here.

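Briefly, cells in 96-well plates were exposed to five compound concentrations for 48 h, and endpoints were estimated by linear interpolation. Abbreviation: GI50, concentration required for 50% inhibition of growth. TGI: total growth inhibition.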

Test systems include 786-0 renal; ACHN renal; EKVX NSCLC; MALME-3M melanoma; SK-MEL-2 melanoma; SN12C renal; SW-620 colon; UACC-62 melanoma; SK-OV-3 ovarian; TK-10 renal.
Assay in all cases: NCI tumour cell line growth inhibition, 48 h

As to `CC(=O)Nc1[nH]c(=O)[nH]c(=O)c1N(C(C)=O)C(C)=O`, the TGI in the assay with 786-0 renal, in the assay with ACHN renal, with EKVX NSCLC, in the assay on MALME-3M melanoma, in the assay on SK-MEL-2 melanoma and in the assay on SN12C renal was more than 100 µM each time. Besides, the TGI in the assay on SW-620 colon and in the assay on UACC-62 melanoma was more than 100 µM in each case.
With `O=C(Nc1ccc(-c2nc3ccc(NC(=O)c4ccc(Cl)cc4)cc3[nH]2)cc1)c1ccc(Cl)cc1`, the GI50 in the assay on 786-0 renal was 0.308 µM; in the assay on ACHN renal, 8.65 µM; with MALME-3M melanoma, 3.79 µM; in the assay with SK-MEL-2 melanoma, 12.6 µM; in the assay on SK-OV-3 ovarian it was 11.8 µM; in the assay with SN12C renal, 12 µM. Moreover, the GI50 is 2.35 µM with SW-620 colon, 2.39 µM in the assay on TK-10 renal and 4.21 µM with UACC-62 melanoma. Also, the TGI with 786-0 renal is 2.26 µM; in the assay with ACHN renal it was 21.1 µM; in the assay on MALME-3M melanoma, 11.4 µM; in the assay with SK-MEL-2 melanoma, 25.2 µM; with SK-OV-3 ovarian, 24.2 µM; in the assay on SN12C renal it was 24.3 µM. In addition, the TGI came to 8.46 µM in the assay on SW-620 colon, 5.8 µM in the assay with TK-10 renal and 16.4 µM in the assay on UACC-62 melanoma.
As to `Clc1ccc(CCN2CCOCC2)c(Cl)c1`, the TGI in the assay with 786-0 renal, with ACHN renal, with EKVX NSCLC, with MALME-3M melanoma, with SK-MEL-2 melanoma and with SK-OV-3 ovarian was more than 100 µM in each case. The TGI in the assay on SN12C renal and in the assay with UACC-62 melanoma was more than 100 µM throughout.
Regarding `NC(=O)c1ccc(NC(=O)c2oc3ccccc3c2-c2cnn(-c3ccccc3)c2)cc1`, the GI50 with 786-0 renal is 5.41 µM; with ACHN renal, 5.03 µM; in the assay with MALME-3M melanoma it was more than 100 µM; in the assay on SK-MEL-2 melanoma, 20.4 µM; with SK-OV-3 ovarian it was more than 100 µM; in the assay on SN12C renal it was more than 100 µM. For the same molecule, the GI50 with SW-620 colon was more than 100 µM; with TK-10 renal, more than 23.3 µM. Moreover, the TGI in the assay on 786-0 renal is more than 85.2 µM; in the assay on ACHN renal it was more than 100 µM; in the assay with MALME-3M melanoma it was more than 100 µM; in the assay with SK-MEL-2 melanoma, more than 100 µM; in the assay on SK-OV-3 ovarian it was more than 100 µM; in the assay with SN12C renal it was more than 100 µM. Moreover, the TGI in the assay with SW-620 colon and with TK-10 renal was more than 100 µM each time.
Take `CCOc1ccc(N2C(N)=NC(N)=NC2(C)C)cc1`: the GI50 in the assay on 786-0 renal is 44.9 µM; in the assay on ACHN renal, more than 100 µM; in the assay on MALME-3M melanoma it was 56.4 µM; with SK-MEL-2 melanoma, more than 100 µM; with SK-OV-3 ovarian it was more than 100 µM; in the assay with SN12C renal, 52.7 µM. For the same molecule, the GI50 with SW-620 colon was 37.6 µM; in the assay with TK-10 renal, more than 100 µM; in the assay with UACC-62 melanoma, 43.8 µM. The TGI in the assay with 786-0 renal, in the assay on ACHN renal, with MALME-3M melanoma, in the assay with SK-MEL-2 melanoma, with SK-OV-3 ovarian and in the assay with SN12C renal was more than 100 µM in each case. Besides, the TGI in the assay with SW-620 colon, with TK-10 renal and with UACC-62 melanoma was more than 100 µM each time.
With `O=[N+]([O-])C(=C(c1ccccc1)c1ccccc1)[N+](=O)[O-]`, the TGI with 786-0 renal was 27.7 µM; with ACHN renal, 25.5 µM; in the assay on SK-MEL-2 melanoma, 6.83 µM; in the assay on SN12C renal it was 30.9 µM; in the assay on SW-620 colon, 25.4 µM; in the assay on TK-10 renal it was 33.2 µM. For the same molecule, the TGI with UACC-62 melanoma is 9.56 µM.
As for `Nc1nc(Cl)cc(NCCCCCCCCCCNc2cc(Cl)nc(N)n2)n1`, the TGI is 91.5 µM in the assay on 786-0 renal; 0.0447 µM with ACHN renal; more than 100 µM in the assay with EKVX NSCLC; more than 100 µM in the assay with SK-MEL-2 melanoma; more than 100 µM in the assay with SK-OV-3 ovarian; more than 100 µM with SN12C renal. Moreover, the TGI with SW-620 colon, in the assay with TK-10 renal and in the assay on UACC-62 melanoma was more than 100 µM in each case.
As to `CN(C)c1ccc(/C=N/Nc2ccc(-c3nc4ccccc4[nH]3)cc2)cc1`, the GI50 with 786-0 renal was 10.6 µM; with ACHN renal, 8.76 µM; in the assay with EKVX NSCLC, 17.6 µM; in the assay on SK-MEL-2 melanoma it was 8.27 µM; with SK-OV-3 ovarian it was 21.2 µM; in the assay on SN12C renal, more than 50 µM. Besides, the GI50 in the assay on SW-620 colon is 18.9 µM; with TK-10 renal, 47.3 µM; in the assay on UACC-62 melanoma, 8.32 µM. In addition, the TGI is 38.6 µM in the assay on 786-0 renal; 41.7 µM in the assay on ACHN renal; more than 50 µM in the assay with EKVX NSCLC; 26.4 µM with SK-MEL-2 melanoma; more than 50 µM with SK-OV-3 ovarian; more than 50 µM with SN12C renal. The TGI with SW-620 colon is more than 50 µM; with TK-10 renal it was more than 50 µM; in the assay on UACC-62 melanoma it was 24.3 µM.
Take `c1ccc(CN(Cc2ccccn2)Cn2cccn2)nc1`: the TGI in the assay with 786-0 renal, with ACHN renal, in the assay with EKVX NSCLC, with SK-MEL-2 melanoma, in the assay with SK-OV-3 ovarian and with SN12C renal was more than 100 µM each time. In addition, the values for the TGI in the assay on SW-620 colon, in the assay with TK-10 renal and in the assay on UACC-62 melanoma were more than 100 µM, more than 100 µM and 44.4 µM, respectively.
Consider `CC(=O)OCC1OC(O[C@@H]2C[C@H]3C(C)(C)[C@H](OC(C)=O)CC[C@]3(C)[C@H]3CC[C@@H]4[C@]5(CC[C@@]4(C)[C@@]32C)O[C@@H]([C@H](O)C(C)(C)O)C[C@@H]5C)C(O)C(O)C1O` (some centres undefined), for which the GI50 in the assay with 786-0 renal is 8.79 µM; in the assay on ACHN renal it was 9.23 µM; in the assay with EKVX NSCLC, 9.52 µM; with MALME-3M melanoma, 10.3 µM; with SK-MEL-2 melanoma, 6.04 µM; in the assay on SK-OV-3 ovarian, 7.95 µM. In addition, the GI50 is 11.1 µM in the assay on SN12C renal, 10.4 µM in the assay on SW-620 colon and 6.36 µM in the assay on UACC-62 melanoma. The TGI was determined as 21.9 µM in the assay on 786-0 renal; 21.3 µM in the assay on ACHN renal; 28.5 µM in the assay with EKVX NSCLC; 22.4 µM in the assay with MALME-3M melanoma; 19.7 µM in the assay with SK-MEL-2 melanoma; 20.7 µM with SK-OV-3 ovarian. In addition, the TGI came out at 24 µM with SN12C renal, 22.9 µM with SW-620 colon and 19.7 µM in the assay with UACC-62 melanoma.
